In patent US6355799B1, “Substituted benzene compounds, process for their preparation, and herbicidal and defoliant compositions containing them” (ISK Americas Incorporated, priority 1997, dated 2002):

Key:
Type in all cases: in vivo
[1] = tested on: redroot pigweed (Amaranthus retroflexus, AMARE); test: Pre-emerge test, greenhouse herbicide activity screening; conditions: rating scale 0-100, 14 days after application
Method in brief: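 Compounds in acetone were track-sprayed at 15-1000 g ai/ha (187 l/ha) on sandy loam pots: pre-emerge one day after seeding, post-emerge at 2-3 leaf stage with 0.25% v/v non-ionic surfactant. Phytotoxicity was rated 14 days later on a 0 (no damage) to 100 (complete death) scale.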

[2] = tested on: barnyardgrass (Echinochloa crus-galli, ECHCG); test: as above; conditions: rating scale 0-100, 14 days after application
Method in brief: (§1)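 Rating: 0–100 visual injury, 14 DAA. Application: acetone, 187 l/ha, 15–1000 g ai/ha, flat-fan track sprayer with nozzle 40–45 cm above soil or canopy. Post-emerge runs used 0.25% v/v surfactant on 2–3 leaf plants.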

[3] = tested on: green foxtail (Setaria viridis, SETVI); test: as above; conditions: rating scale 0-100, 14 days after application
Method in brief: as §1

[4] = tested on: ivyleaf morningglory (Ipomoea hederacea, IPOHE); test: as above; conditions: rating scale 0-100, 14 days after application
Method in brief: as §1

[5] = tested on: johnsongrass (Sorghum halepense, SORHA); test: as above; conditions: rating scale 0-100, 14 days after application
Method in brief: as §1

[6] = tested on: lambsquarters (Chenopodium album, CHEAL); test: as above; conditions: rating scale 0-100, 14 days after application
Method in brief: as §1

[7] = tested on: large crabgrass (Digitaria sanguinalis, DIGSA); test: as above; conditions: rating scale 0-100, 14 days after application
Method in brief: as §1

[8] = tested on: sicklepod (Cassia obtusifolia, CASOB); test: as above; conditions: rating scale 0-100, 14 days after application
Method in brief: as §1

[9] = tested on: velvetleaf (Abutilon theophrasti, ABUTH); test: as above; conditions: rating scale 0-100, 14 days after application
Method in brief: as §1

[10] = tested on: field corn (Zea mays L., var. Dekalb 535, CORN); test: Pre-emerge test, crop safety; conditions: rating scale 0-100, 14 days after application
Method in brief: (§2)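 Applied at 15–1000 g ai/ha from acetone in 187 l/ha spray volume. Post-emergence applications included 0.25% v/v non-ionic surfactant and reached plants sown 8–21 days before. Pre-emergence applications were incorporated by surface watering. Efficacy or crop damage was rated on a 0–100 scale after 14 days.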

[11] = tested on: upland rice (Oryza sp., var. Tebonnet, RICE); test: Pre-emerge test, crop safety; conditions: rating scale 0-100, 14 days after application
Method in brief: as §2

[12] = tested on: barnyardgrass (Echinochloa crus-galli, ECHCG); test: Post-emerge test, greenhouse herbicide activity screening; conditions: rating scale 0-100 (0 no damage, 100 complete death), 14 days after application
Method in brief: (§3)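 Visual ratings on a 0-100 scale (0 no damage, 100 all plants dead) were taken at 14 days after treatment. Rates of 15-1000 g ai/ha in acetone, 187 l/ha, were sprayed onto soil one day after planting (pre-emerge) or onto 2-3 leaf plants with 0.25% v/v surfactant (post-emerge).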

[13] = tested on: common ragweed (Ambrosia artemisizfolia L., AMBEL); test: as above; conditions: rating scale 0-100 (0 no damage, 100 complete death), 14 days after application
Method in brief: as §3

[14] = tested on: green foxtail (Setaria viridis, SETVI); test: as above; conditions: rating scale 0-100 (0 no damage, 100 complete death), 14 days after application
Method in brief: as §3

[15] = tested on: ivyleaf morningglory (Ipomoea hederacea, IPOHE); test: as above; conditions: rating scale 0-100 (0 no damage, 100 complete death), 14 days after application
Method in brief: as §3

[16] = tested on: johnsongrass (Sorghum halepense, SORHA); test: as above; conditions: rating scale 0-100 (0 no damage, 100 complete death), 14 days after application
Method in brief: as §3

[17] = tested on: lambsquarters (Chenopodium album, CHEAL); test: as above; conditions: rating scale 0-100 (0 no damage, 100 complete death), 14 days after application
Method in brief: as §3

[18] = tested on: large crabgrass (Digitaria sanguinalis, DIGSA); test: as above; conditions: rating scale 0-100 (0 no damage, 100 complete death), 14 days after application
Method in brief: as §3

[19] = tested on: redroot pigweed (Amaranthus retroflexus, AMARE); test: as above; conditions: rating scale 0-100 (0 no damage, 100 complete death), 14 days after application
Method in brief: as §3

[20] = tested on: sicklepod (Cassia obtusifolia, CASOB); test: as above; conditions: rating scale 0-100 (0 no damage, 100 complete death), 14 days after application
Method in brief: as §3

[21] = tested on: velvetleaf (Abutilon theophrasti, ABUTH); test: as above; conditions: rating scale 0-100 (0 no damage, 100 complete death), 14 days after application
Method in brief: as §3

[22] = tested on: field corn (Zea mays L., var. Dekalb 535, CORN); test: Post-emerge test, crop safety; conditions: rating scale 0-100 (0 no damage, 100 complete death), 14 days after application
Method in brief: (§4)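 Plants grown in 10 cm pots of sandy loam mix received acetone-dissolved compounds through a moving flat-fan nozzle. Doses ranged from 15 to 1000 g ai/ha. Pre-emerge pots were seeded one day earlier, post-emerge pots 8–21 days earlier. Fourteen days on, each pot was graded 0–100 for damage.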

[23] = tested on: upland rice (Oryza sp., var. Tebonnet, RICE); test: Post-emerge test, crop safety; conditions: rating scale 0-100 (0 no damage, 100 complete death), 14 days after application
Method in brief: as §4

Structure (SMILES): CCOC(=O)C(Br)Cc1c(OC)c(Cl)cc(F)c1-n1c(=O)cc(C(F)(F)F)n(C)c1=O (single isomer, unassigned) [14-32]
- Pre-emerge herbicidal activity, phytotoxicity rating AMARE ([1]; 63 g ai/ha): 100
- Pre-emerge herbicidal activity, phytotoxicity rating AMARE ([1]; 250 g ai/ha): 100
- Pre-emerge herbicidal activity, phytotoxicity rating ECHCG ([2]; 63 g ai/ha): 0
- Pre-emerge herbicidal activity, phytotoxicity rating ECHCG ([2]; 250 g ai/ha): 30
- Pre-emerge herbicidal activity, phytotoxicity rating SETVI ([3]; 63 g ai/ha): 0
- Pre-emerge herbicidal activity, phytotoxicity rating SETVI ([3]; 250 g ai/ha): 40
- Pre-emerge herbicidal activity, phytotoxicity rating IPOHE ([4]; 63 g ai/ha): 0
- Pre-emerge herbicidal activity, phytotoxicity rating IPOHE ([4]; 250 g ai/ha): 0
- Pre-emerge herbicidal activity, phytotoxicity rating SORHA ([5]; 63 g ai/ha): 0
- Pre-emerge herbicidal activity, phytotoxicity rating SORHA ([5]; 250 g ai/ha): 20
- Pre-emerge herbicidal activity, phytotoxicity rating CHEAL ([6]; 63 g ai/ha): 80
- Pre-emerge herbicidal activity, phytotoxicity rating CHEAL ([6]; 250 g ai/ha): 100
- Pre-emerge herbicidal activity, phytotoxicity rating DIGSA ([7]; 63 g ai/ha): 20
- Pre-emerge herbicidal activity, phytotoxicity rating DIGSA ([7]; 250 g ai/ha): 100
- Pre-emerge herbicidal activity, phytotoxicity rating CASOB ([8]; 63 g ai/ha): 0
- Pre-emerge herbicidal activity, phytotoxicity rating CASOB ([8]; 250 g ai/ha): 30
- Pre-emerge herbicidal activity, phytotoxicity rating ABUTH ([9]; 63 g ai/ha): 10
- Pre-emerge herbicidal activity, phytotoxicity rating ABUTH ([9]; 250 g ai/ha): 50
- Pre-emerge phytotoxicity rating, crop damage CORN ([10]; 63 g ai/ha): 0
- Pre-emerge phytotoxicity rating, crop damage CORN ([10]; 250 g ai/ha): 0
- Pre-emerge phytotoxicity rating, crop damage RICE ([11]; 63 g ai/ha): 0
- Pre-emerge phytotoxicity rating, crop damage RICE ([11]; 250 g ai/ha): 10
- Post-emerge Herbicidal Activity, phytotoxicity rating ECHCG ([12]; Rate 63 g ai/ha): 100
- Post-emerge Herbicidal Activity, phytotoxicity rating ECHCG ([12]; Rate 250 g ai/ha): 100
- Post-emerge Herbicidal Activity, phytotoxicity rating AMBEL ([13]; Rate 63 g ai/ha): 40
- Post-emerge Herbicidal Activity, phytotoxicity rating AMBEL ([13]; Rate 250 g ai/ha): 40
- Post-emerge Herbicidal Activity, phytotoxicity rating SETVI ([14]; Rate 63 g ai/ha): 40
- Post-emerge Herbicidal Activity, phytotoxicity rating SETVI ([14]; Rate 250 g ai/ha): 70
- Post-emerge Herbicidal Activity, phytotoxicity rating IPOHE ([15]; Rate 63 g ai/ha): 0
- Post-emerge Herbicidal Activity, phytotoxicity rating IPOHE ([15]; Rate 250 g ai/ha): 20
- Post-emerge Herbicidal Activity, phytotoxicity rating SORHA ([16]; Rate 63 g ai/ha): 0
- Post-emerge Herbicidal Activity, phytotoxicity rating SORHA ([16]; Rate 250 g ai/ha): 10
- Post-emerge Herbicidal Activity, phytotoxicity rating CHEAL ([17]; Rate 63 g ai/ha): 0
- Post-emerge Herbicidal Activity, phytotoxicity rating CHEAL ([17]; Rate 250 g ai/ha): 80
- Post-emerge Herbicidal Activity, phytotoxicity rating DIGSA ([18]; Rate 63 g ai/ha): 70
- Post-emerge Herbicidal Activity, phytotoxicity rating DIGSA ([18]; Rate 250 g ai/ha): 90
- Post-emerge Herbicidal Activity, phytotoxicity rating AMARE ([19]; Rate 63 g ai/ha): 95
- Post-emerge Herbicidal Activity, phytotoxicity rating AMARE ([19]; Rate 250 g ai/ha): 100
- Post-emerge Herbicidal Activity, phytotoxicity rating CASOB ([20]; Rate 63 g ai/ha): 20
- Post-emerge Herbicidal Activity, phytotoxicity rating CASOB ([20]; Rate 250 g ai/ha): 40
- Post-emerge Herbicidal Activity, phytotoxicity rating ABUTH ([21]; Rate 63 g ai/ha): 90
- Post-emerge Herbicidal Activity, phytotoxicity rating ABUTH ([21]; Rate 250 g ai/ha): 95
- Post-emerge phytotoxicity rating CORN (crop damage) ([22]; Rate 63 g ai/ha): 0
- Post-emerge phytotoxicity rating CORN (crop damage) ([22]; Rate 250 g ai/ha): 0
- Post-emerge phytotoxicity rating RICE (crop damage) ([23]; Rate 63 g ai/ha): 0
- Post-emerge phytotoxicity rating RICE (crop damage) ([23]; Rate 250 g ai/ha): 0
